{"source": "ChEMBL document CHEMBL3351879", "about": "“Isolation, structure elucidation, relative LC-MS response, and in vitro toxicity of azaspiracids from the dinoflagellate Azadinium spinosum” (J Nat Prod, 2014)", "assay_type_in_all_cases": "functional, cell-based", "key": {"[1]": {"experiment": "Cytotoxicity against human Jurkat E6-1 cells assessed as cell viability after 72 hrs by MTS assay"}, "[2]": {"experiment": "Cytotoxicity against human Jurkat E6-1 cells assessed as cell viability after 48 hrs by MTS assay"}, "[3]": {"experiment": "Cytotoxicity against human Jurkat E6-1 cells assessed as cell viability after 24 hrs by MTS assay"}}, "data": [{"smiles": "C=C(C[C@@]12C[C@@H](C)C[C@@H](O1)[C@H]1O[C@]3(C[C@H]1O2)NC[C@H](C)C[C@@H]3C)[C@H]1O[C@@](O)([C@H](O)[C@@H]2C[C@H]3O[C@@]4(CC[C@]5(CC=C[C@@H](CCC(=O)O)O5)O4)[C@H](C)C[C@H]3O2)[C@H](C)C[C@@H]1C", "values": [{"measurement": "EC50", "setting": "[1]", "result": 0.2, "unit": "nM"}, {"measurement": "EC50", "setting": "[2]", "result": 0.18, "unit": "nM"}, {"measurement": "EC50", "setting": "[3]", "result": 0.23, "unit": "nM"}]}, {"smiles": "C=C(C[C@@]12C[C@@H](C)C[C@@H](O1)[C@H]1O[C@]3(C[C@H]1O2)NC[C@H](C)C[C@@H]3C)[C@H]1O[C@@](O)([C@H](O)[C@@H]2CC[C@@H](C/C=C/CC/C=C/CCC(=O)O)O2)[C@H](C)C[C@@H]1C", "values": [{"measurement": "EC50", "setting": "[1]", "result": 6.4, "unit": "nM"}, {"measurement": "EC50", "setting": "[2]", "result": 5.9, "unit": "nM"}, {"measurement": "EC50", "setting": "[3]", "result": 3.3, "unit": "nM"}]}, {"smiles": "C=C(C[C@]12C[C@@H](C)C[C@H](O1)[C@H]1O[C@]3(C[C@H]1O2)NC[C@H](C)C[C@@H]3C)[C@H]1O[C@@](O)([C@H](O)[C@@H]2C[C@H]3O[C@@]4(CC[C@]5(CC=C[C@@H](/C=C/CCC(=O)O)O5)O4)[C@H](C)C[C@H]3O2)[C@H](C)C[C@@H]1C", "values": [{"measurement": "EC50", "setting": "[1]", "result": 1.3, "unit": "nM"}, {"measurement": "EC50", "setting": "[2]", "result": 1.1, "unit": "nM"}, {"measurement": "EC50", "setting": "[3]", "result": 0.96, "unit": "nM"}]}]}
